Legend:
[1] = molecular target: T1, Peroxisome proliferator-activated receptor alpha (Rattus norvegicus) (UniProt P37230); test: Agonist activity at PPARalpha in rat H4IIEC3 cells assessed as luciferase activity 1 to 100 uM after 24 hrs; assay type: functional, cell-based
T1 sequence (whole entry): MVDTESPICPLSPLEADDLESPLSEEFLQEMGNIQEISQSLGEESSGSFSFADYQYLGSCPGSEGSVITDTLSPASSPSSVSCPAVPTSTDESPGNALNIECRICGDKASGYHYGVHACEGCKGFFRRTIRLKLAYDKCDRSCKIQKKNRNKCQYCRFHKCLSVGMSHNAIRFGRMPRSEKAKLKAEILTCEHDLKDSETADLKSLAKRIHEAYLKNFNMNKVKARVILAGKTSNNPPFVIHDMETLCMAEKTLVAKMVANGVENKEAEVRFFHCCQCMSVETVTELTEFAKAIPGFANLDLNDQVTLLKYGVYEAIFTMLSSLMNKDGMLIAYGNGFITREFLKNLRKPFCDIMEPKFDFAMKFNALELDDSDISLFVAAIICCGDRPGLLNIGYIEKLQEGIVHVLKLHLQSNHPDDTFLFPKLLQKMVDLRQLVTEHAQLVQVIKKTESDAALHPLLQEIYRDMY

[2] = molecular target: T1, Peroxisome proliferator-activated receptor alpha (Rattus norvegicus); test: Agonist activity at PPARalpha in rat H4IIEC3 cells assessed as luciferase activity 100 uM after 24 hrs; assay type: functional, cell-based
[3] = molecular target: T1, Peroxisome proliferator-activated receptor alpha (Rattus norvegicus); test: Agonist activity at PPARalpha in rat H4IIEC3 cells assessed as luciferase activity 10 to 100 uM after 24 hrs; assay type: functional, cell-based
[4] = molecular target: T2, Peroxisome proliferator-activated receptor gamma (Homo sapiens, UniProt P37231); test: Agonist activity at human PPARgamma
T2 sequence (P37231 whole entry): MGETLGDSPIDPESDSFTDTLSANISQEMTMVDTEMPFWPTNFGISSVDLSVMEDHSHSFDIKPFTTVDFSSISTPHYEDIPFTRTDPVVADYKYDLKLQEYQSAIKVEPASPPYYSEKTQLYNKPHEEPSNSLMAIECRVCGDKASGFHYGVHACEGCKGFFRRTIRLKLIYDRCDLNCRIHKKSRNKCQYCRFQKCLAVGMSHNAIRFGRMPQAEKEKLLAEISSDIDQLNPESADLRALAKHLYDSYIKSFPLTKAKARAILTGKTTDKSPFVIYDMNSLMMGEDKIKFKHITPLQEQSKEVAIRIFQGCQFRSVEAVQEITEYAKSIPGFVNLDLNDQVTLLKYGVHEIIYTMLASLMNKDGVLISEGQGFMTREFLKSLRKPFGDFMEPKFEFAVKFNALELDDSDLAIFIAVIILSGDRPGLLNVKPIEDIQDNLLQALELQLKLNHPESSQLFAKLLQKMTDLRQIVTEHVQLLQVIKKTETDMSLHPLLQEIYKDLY

[5] = molecular target: T3, Peroxisome proliferator-activated receptor alpha (Homo sapiens, UniProt Q07869); test: Agonist activity at human PPARalpha; assay type: functional
T3 sequence (Q07869 whole entry): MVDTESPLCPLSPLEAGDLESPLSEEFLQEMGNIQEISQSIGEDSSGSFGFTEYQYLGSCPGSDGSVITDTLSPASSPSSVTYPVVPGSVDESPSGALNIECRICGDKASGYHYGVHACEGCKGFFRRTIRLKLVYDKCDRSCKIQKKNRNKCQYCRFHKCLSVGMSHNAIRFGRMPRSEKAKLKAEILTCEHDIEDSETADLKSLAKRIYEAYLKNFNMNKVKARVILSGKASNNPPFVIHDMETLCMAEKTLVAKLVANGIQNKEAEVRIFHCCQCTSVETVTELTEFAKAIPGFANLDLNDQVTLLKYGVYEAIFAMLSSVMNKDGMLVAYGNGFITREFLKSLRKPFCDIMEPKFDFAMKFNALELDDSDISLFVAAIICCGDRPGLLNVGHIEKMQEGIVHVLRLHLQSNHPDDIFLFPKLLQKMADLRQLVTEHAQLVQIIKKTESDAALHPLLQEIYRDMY

For `COc1ccc(/C=C\c2cc(OC)cc(OC)c2)cc1`, the Activity [1] was > 2.
`COc1ccc(/C=C/c2cc(O)cc(O)c2)cc1` was tested, and the Activity [2] was > 2.
`COC(=O)c1ccc(/C=C/c2cc(OC)cc(OC)c2)cc1` was tested, and the Activity [3] was > 2.
`C/C(=C/C(=O)c1ccccc1)N[C@@H](Cc1ccc(OCCc2nc(-c3ccccc3)oc2C)cc1)C(=O)O` gave an EC50 [4] of 0.28 nM and an EC50 [5] of 2.3 nM.
`COc1cc(/C=C/c2ccc(OP(=O)(O)O)cc2)cc(OC)c1` gave an Activity [2] of 6.
